From patent US20170304317A1, “DIETARY S[…] MUSCLE GROWTH AND STRENGTH” (priority 2015, published 2017)

Tests used:
[1] = Bioavailability / half-life of 19 Nor-DHEA forms; assay type: in vivo; conditions: compared with regular 19 Nor-DHEA
[2] = regular (non-esterified) 19 Nor-DHEA; cited from earlier work
[3] = cited from earlier work
[4] = via conversion to 4-androstenediol; stated as well known; cited from earlier work

## CCCCCCC(=O)O[C@@H]1C=C2CC[C@@H]3[C@H](CC[C@]4(C)C(=O)CC[C@@H]34)[C@H]2CC1 [enanthated 19 Nor-DHEA, 3b-enanthoxy-19-nor-androst-4-ene-17-one]
[1]
  bioavailability: improved bioavailability

## C[C@]12CC[C@H]3[C@@H](CC=C4C[C@@H](O)CC[C@@H]43)[C@@H]1CCC2=O [19 Nor-DHEA]
[2]
  half-life: very short half-life

## C[C@]12CC[C@H](O)CC1=CC[C@@H]1[C@@H]2CC[C@]2(C)C(=O)CC[C@@H]12 [DHEA, dehydroepiandrosterone]
[3]; stated as well known
  conversion rate to testosterone: ~1%

## C[C@]12C=CC(O)CC1CC[C@@H]1[C@@H]2CC[C@]2(C)C(=O)CC[C@@H]12 (some centres unmarked) [1-DHEA]
[3]; stated as generally known
  conversion rate to 1-testosterone: less than 2%

## C[C@]12CC[C@H](O)C=C1CC[C@@H]1[C@@H]2CC[C@]2(C)C(=O)CC[C@@H]12 [4-DHEA]
[4]
  anabolic potency compared with regular DHEA: more than two times greater
